The source of these data is paper PMC11489250, “Optimized methods for measuring competitive binding of chemical substances to thyroid hormone distributor proteins transthyretin and thyroxine binding globulin” (Archives of Toxicology, 2024).

The target in assay [1] is T1, Human TTR (Homo sapiens, UniProt P02766).
T1 construct: Transthyretin (prealbumin, TTR) >95% from human plasma; purchased Sigma Aldrich (Zwijndrecht, The Netherlands); host or cells: human plasma
Briefly: Optimized competitive TTR-binding assay with FITC-T4 (fluorescence intensity readout). Particulars: for T4EQ concentration (TTR binding): T4EQi = highest human blood concentration x T4-REPi; for Contribution to T4EQ concentration (TTR binding): mixture of highest human blood concentrations of five model compounds; for IC20: read-out: TTR IC20. The protocol:
All TTR-binding experiments were performed in black 96-well polystyrene nonbinding plates. Experimental wells and background wells were prepared in triplicate per plate. […] Fluorescence intensity (FI) was measured at λex = 485 ± 20 nm and λem = 528 ± 20 nm (CLARIOstar Plus microplate reader, BMG LABTECH).
To test the effect of the change in temperature and incubation time, a saturation experiment (N = 3, n = 3) was performed in Tris–HCl buffer (0.1 M Tris (Thermo Scientific, Rockford, USA), 0.1 M NaCl (Merck KGaA, Darmstadt, Germany), 1 mM EDTA (VWR International, B.V. Amsterdam, The Netherlands); pH 8.0). […] Two 96-well plates were prepared at the same time. After shaking for 5 min on a plate shaker, one prepared plate was incubated on ice (at 4 °C) and another plate was incubated at room temperature (22 °C). For both plates the fluorescence was measured at different time points: 5 min, 15 min, 60 min and 120 min.
First, 48 µL Tris–HCl buffer (pH 8.0) was pipetted to the wells, followed by 2 µL of the compound (in DMSO). […] Final solvent (DMSO) concentrations in all conditions amounted to 1%. All plates were shaken for 5 min on a plate shaker, followed by an incubation for 15 min at room temperature. The standard operation procedure (SOP) is provided in Supplementary Information file (Section 3).
Calculations of the ICX, Kd and Ki values of TTR-binding assays are described in the Supplementary Information file (Section 3).
3.7.5 The competitive TTR binding screening assay
3.7.8 Processing data to determine IC50 and calculate Ki value

In assay [2] the target is T2, thyroxine-binding globulin (TBG) (Homo sapiens, UniProt P05543).
T2 construct: purchased Bio-rad Laboratories, Inc. (Veenendaal, The Netherlands)
T2 sequence (P05543 21-415): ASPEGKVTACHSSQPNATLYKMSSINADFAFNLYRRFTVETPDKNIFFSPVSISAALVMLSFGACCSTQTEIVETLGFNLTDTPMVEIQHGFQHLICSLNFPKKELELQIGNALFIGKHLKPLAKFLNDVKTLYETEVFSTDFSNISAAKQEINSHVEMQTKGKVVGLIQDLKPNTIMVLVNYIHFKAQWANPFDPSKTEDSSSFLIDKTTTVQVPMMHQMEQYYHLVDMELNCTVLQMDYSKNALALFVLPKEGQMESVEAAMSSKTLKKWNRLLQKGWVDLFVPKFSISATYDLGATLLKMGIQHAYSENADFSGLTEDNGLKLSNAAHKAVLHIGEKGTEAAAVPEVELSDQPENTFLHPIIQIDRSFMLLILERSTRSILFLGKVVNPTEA
Briefly: Competitive TBG-binding assay with FITC-T4 (fluorescence polarization readout). As to the method:
Prepared plates were first shaken for 5 min and then incubated for 15 min at room temperature before being analysed by the microplate reader at FP mode (CLARIOstar Plus, BMG LABTECH).
Accordingly, dilution series of all compounds were prepared in DMSO. First, 24 µL Tris–HCl buffer was pipetted to the wells, followed by 1 µL of the compound stock solution. […] Solvent (DMSO) concentrations in all conditions were 1%. The plates were shaken for 5 min on a plate shaker, followed by an incubation for 15 min at room temperature.
The adjusted polarization was set to a reference value of 35 mP. The adjustment gain values ranged from 1900 to 2200. The plate layout of TBG-binding assay is provided in Supplementary Information file (Section 4).
For the competitive TBG-binding experiments, concentration–response curves were fitted:2 r=rmin+rmax-rmin/1+IC50/X^HillSlope with rmin and rmax being the minimum and maximum anisotropy values, respectively. X is the concentration of added competitor. Equations that were used for the calculation of the ICX and Ki values in the TTR-binding assays (Supplementary Information, Section 3) were also used to determine the ICX and Ki values in TBG-binding assays without any changes, respectively. The single Kd, IC20, IC50 and Ki were determined based on replicates (n) in each experiment, and then the average and confidence intervals were determined based on the Kd, IC20, IC50 and Ki values from sperate experiments (N).
Alternatively, another approach to determine ICX, Kd and Ki values based on a theoretical model of ligand–protein binding biochemistry was taken as described in detail in the Supplementary Information file (Section 5). For this approach, R was used to fit the model to the data. The results obtained from the two approaches were compared in Section 3.4.
S5.2 Ki and IC50 estimation
Background: Fluorescence polarisation rises when a labelled molecule tumbles more slowly, as on binding a larger partner.

In assay [3] the target is T1, Human TTR. Particulars: FITC-T4 110 nM, human TTR 30 nM, 4 °C, 2 h; ref Hamers et al. [2020]; read-out: TTR literature Ki; cited from earlier work.
For assay [4], the target named is TTR. Details: method as in Ren et al. [2016]. The following applies: ref Ren et al. [2016]; read-out: TTR literature Ki; cited from earlier work.
Assay [5] relates to Recombinant TTR. Also on record: method as in Marchesini et al. [2006]. The following applies: highest concentration tested 10 µM; ref Marchesini et al. [2006]; cited from earlier work.
In assay [6] the target is TTR. The following applies: calculated by Ki = 1/binding constant; ref Cao et al. [2011]; read-out: TTR literature Ki; cited from earlier work.
The target of assay [7] is TBG. Particulars: calculated by Ki = 1/binding constant; ref Cao et al. [2011]; read-out: TBG literature Ki; cited from earlier work.
The test system of assay [8] is TBG. Details: method as in Marchesini et al. [2006]. The following applies: highest concentration tested 10 µM; ref Marchesini et al. [2006]; cited from earlier work.

Where two headings read alike, the source gives them in different places.

The IC50 is the midpoint of a concentration-inhibition curve. Usually Ki stands for a measure of affinity in units of concentration, obtained from inhibition or displacement. As usually defined, the IC20 is the concentration at which the effect reaches the 20% level. `O=C(O)C(F)(F)C(F)(F)C(F)(F)C(F)(F)C(F)(F)C(F)(F)C(F)(F)F` [PFOA, perfluorooctanoic acid]: the “T4EQ concentration (TTR binding)” value in assay [1] amounted to 1.26 nM. For the same compound, the half-inhibitory concentration (IC50) is 763 nM in assay [1] (TTR IC50, 110 nM FITC-T4, 30 nM TTR, RT, 15 min, average [95% CI]); 500 nM in assay [1] (TTR IC50 [95% CI], 55 nM FITC-T4, 30 nM TTR, RT (5 min)); 496 nM in assay [1] (TTR IC50 [95% CI], 55 nM FITC-T4, 30 nM TTR, RT (15 min)); 459 nM in assay [1] (TTR IC50 [95% CI], 55 nM FITC-T4, 30 nM TTR, RT (60 min)); 460 nM in assay [1] (TTR IC50 [95% CI], 55 nM FITC-T4, 30 nM TTR, RT (120 min)); 461 nM in assay [1] (TTR IC50 [95% CI], 55 nM FITC-T4, 30 nM TTR, on ice (120 min)). In addition, the inhibition constant Ki is 268 nM in assay [1] (TTR Ki [95% CI], 55 nM FITC-T4, 30 nM TTR, RT (5 min)); 280 nM in assay [1] (TTR Ki [95% CI], 55 nM FITC-T4, 30 nM TTR, RT (15 min)); 304 nM in assay [1] (TTR Ki [95% CI], 55 nM FITC-T4, 30 nM TTR, RT (60 min)); 353 nM in assay [1] (TTR Ki [95% CI], 55 nM FITC-T4, 30 nM TTR, on ice (120 min)); 568 nM in assay [1] (TTR Ki, 110 nM FITC-T4, 30 nM TTR, RT, 15 min, derived from IC20, average [95% CI]); 1100 nM in assay [3]. In assay [4], the inhibition constant (Ki) is 60 nM. For the same compound, the “Contribution to T4EQ concentration (TTR binding)” value in assay [1] is reported as 6.6%. Moreover, in assay [1], the concentration for an effect of 20% (IC20) was 267 nM. Moreover, in assay [2] (5 nM FITC-T4, 10 nM TBG, RT), the “inhibition of the FITC-T4 binding to TBG (in words)” value is recorded as “No (or only limited) inhibition”.
As for `CC(C)(c1ccc(O)cc1)c1ccc(O)cc1` [BPA, bisphenol-A], the 20% effect concentration (IC20) in assay [1] (110 nM FITC-T4, 30 nM TTR, RT, 15 min, average [95% CI]) was determined as 14700 nM; in assay [2] (5 nM FITC-T4, 10 nM TBG, RT, 15 min, descriptive model (Graphpad), average [95% CI], read-out: TBG IC20), 32600 nM; in assay [2] (5 nM FITC-T4, 10 nM TBG, RT, theoretical model in R, average [95% CI], read-out: TBG IC20, theoretical model), 35700 nM. The IC50 was 63100 nM in assay [1] (110 nM FITC-T4, 30 nM TTR, RT, 15 min, average [95% CI], read-out: TTR IC50) and 172000 nM in assay [2] (5 nM FITC-T4, 10 nM TBG, RT, 15 min, descriptive model (Graphpad), average [95% CI]). Besides, the Ki in assay [1] (110 nM FITC-T4, 30 nM TTR, RT, 15 min, derived from IC20, average [95% CI], read-out: TTR Ki) is 32100 nM; in assay [2] (5 nM FITC-T4, 10 nM TBG, RT, 15 min, derived from IC20, descriptive model (Graphpad), average [95% CI], read-out: TBG Ki), 16800 nM; in assay [2] (5 nM FITC-T4, 10 nM TBG, RT, theoretical model in R, average [95% CI], read-out: TBG Ki values, theoretical model) it was 18400 nM; in assay [6], 3230 nM; in assay [7], 1700 nM. Also, in assay [1] (T4-REPi = IC20(T4)/IC20(i)), the “Relative potency compared to T4 (T4-REP), TTR-binding assay” value stood at 0.002. Moreover, in assay [1], the “T4EQ concentration (TTR binding)” value was 0.16 nM. For the same compound, the “Contribution to T4EQ concentration (TTR binding)” value in assay [1] is recorded as 0.8%. Moreover, the “Relative potency compared to T4 (T4-REP), TBG-binding assay” value in assay [2] (T4-REPi = IC20(T4)/IC20(i)) was 0.0003. Also, the “T4EQ concentration (TBG binding)” value in assay [2] (T4EQi = highest human blood concentration x T4-REPi) was determined as 0.023 nM. Also, in assay [2] (mixture of highest human blood concentrations of TBBPA, triclosan and BPA), the “Contribution to T4EQ concentration (TBG binding)” value is on record as 1.1%. In addition, in assay [5], the “competitive binding to TTR (in words)” value is “no competitive binding”. The “competitive binding to TBG (in words)” value in assay [8] is “no competitive binding”.
